{
  "source": "patent US20130158362A1",
  "about": "(INFACARE PHARMACEUTICAL CORPORATION, priority 2011, published 2013)",
  "key": {"[1]": {"tested_on": "term and late preterm subjects with hyperbilirubinemia", "assay": "Phase 2b trial: dermatological assessment (rash)", "type": "in vivo, human", "description": "In some embodiments, dermatological examinations comprise the identification of photosensitive reactions if any. Photosensitive reaction may occur with metalloporphyrins and broad spectrum light. Photosensitive reactions include skin rashes.\n(§1) Safety measurements included adverse events (AEs), hematology and chemistry laboratory tests, vital sign measurements, physical examinations, dermatological assessments, hearing assessments, ophthalmological assessments, neurological assessments, and quantitative electrocardiograms (ECGs)."}, "[2]": {"tested_on": "term and late preterm subjects with hyperbilirubinemia", "assay": "Phase 2b trial: quantitative electrocardiograms (QT)", "type": "in vivo, human", "description": "In some embodiments, 12-Lead ECGs measurements comprise clarification of a cardiovascular event, measurement of cardiac intervals and morphological assessment, measurements of the RR, PR, QRS, and QT interval durations and combinations thereof. In some embodiments, Bazett's correction of the QT interval (QTcB), Fridericia's correction of the QT interval (QTcF), and heart rate (HR) can be derived from 12-Lead ECGs measurements.\nas §1\nAll other safety endpoints (vital sign measurements, hematology and chemistry laboratory tests, physical examination results, ECG results, etc.) were summarized by treatment group and visit. In addition, shift tables were generated for laboratory results comparing postbaseline results with baseline. Similar shift tables were generated for results of vital sign measurements."}},
  "note": "Entries after “also recorded” stand apart in the source; their conditions may differ.",
  "data": [
    {"substance": "tin IV mesoporphyrin IX dichloride [Stannsoporfin]", "values": [
      {"measurement": "Rash and PT, n (% of those with a rash)", "setting": "[1]; 1.5 mg/kg IM", "value": "2 (66.7%)"},
      {"measurement": "Subjects with any rash, n (%)", "setting": "[1]; 1.5 mg/kg IM", "value": "3 (17.6%)"},
      {"measurement": "types of rashes observed", "setting": "[1]; 1.5 mg/kg IM", "value": "Contusion; also recorded: Diaper Dermatitis; also recorded: PT Induced rash*; also recorded: Desquamation; also recorded: Contact Dermatitis"},
      {"measurement": "Rash and PT, n (% of those with a rash)", "setting": "[1]; 3.0 mg/kg IM", "value": "3 (37.5%)"},
      {"measurement": "Subjects with any rash, n (%)", "setting": "[1]; 3.0 mg/kg IM", "value": "8 (44.4%)"},
      {"measurement": "types of rashes observed", "setting": "[1]; 3.0 mg/kg IM", "value": "Neonatal Acne; also recorded: Erythema; also recorded: Seborrhea; also recorded: Diaper rash; also recorded: Flushing"},
      {"measurement": "Rash and PT, n (%)", "setting": "[1]; 4.5 mg/kg IM", "value": "1 (12.5%)"},
      {"measurement": "Subjects with any rash, n (%)", "setting": "[1]; 4.5 mg/kg IM", "value": "1 (13.3%)"},
      {"measurement": "types of rashes observed", "setting": "[1]; 4.5 mg/kg IM", "value": "Erythema **"},
      {"measurement": "QT prolongation", "setting": "[2]; 1.5 to 4.5 mg/kg IM", "value": "no QT prolongation"},
      {"measurement": "effect on heart rate, PR interval, RR interval, QRS complexes and QT interval", "setting": "[2]; 1.5 to 4.5 mg/kg IM", "value": "no effect"},
      {"measurement": "ECG results compared to the placebo group", "setting": "[2]; final data", "value": "no dose-related trends or marked differences"}
    ]}
  ]
}
